Earlier results as cited in patent US20230363996A1, “HAIR CARE COMPOSITION” (Conopco, Inc., d/b/a UNILEVER, priority 2020, published 2023).

Conditions: organic/aqueous partition

| log P | Compound |
| --- | --- |
| 3.15 | O=C(c1ccccc1)c1ccc(O)cc1O [benzophenone-1] |
| 3.09 | O=C(c1ccc(O)cc1O)c1ccc(O)cc1O [benzophenone-2] |
| 3.99 | COc1ccc(C(=O)c2ccccc2)c(O)c1 [benzophenone-3] |
| 4.78 | COc1ccc(C(=O)c2ccc(OC)cc2O)c(O)c1 [benzophenone-6] |
| 4.51 | O=C(c1ccccc1)c1cc(Cl)ccc1O [benzophenone-7] |
| 4.31 | COc1ccc(C(=O)c2ccccc2O)c(O)c1 [benzophenone-8] |
| 4.66 | COc1ccc(C(=O)c2ccc(C)cc2)c(O)c1 [benzophenone-10] |

| Compound | log P |
| --- | --- |
| COc1cc(O)c(C(=O)c2ccccc2)cc1S(=O)(=O)O [Benzophenone-4, reference compound] | Benzophenone-4 (logP = 0.99) |
